The results in this text go back to patent US6140333A, “N-acyl cyclic amine derivatives” (priority 1998, dated 2000).

Structures are written as SMILES.

In assay [1] the target is T1, m3 muscarinic acetylcholine receptor (Homo sapiens, UniProt P20309).
T1 construct: purchased Receptor Biology Inc; host or cells: CHO cells
Description: biochemical. The settings on record: for Ki: CHO cells expressing m3, 0.2 nM [3H]-N-methylscopolamine, pH 7.4, 120 min, room temperature; for m2/m3 (ratio of Ki): selectivity m2 over m3, binding. It is filed as binding. The protocol: (§1) These tests were performed according to a modification of the method of Hargreaves et al. (Br. J. Pharmacol. 107: pp. 494-501, 1992). Thus, CHO cells expressing m2 and m3 muscarinic acetylcholine receptors (Receptor Biology Inc.) were incubated with 0.2 nM [^3 H]-N-methylscopolamine (84Ci/mmol, New England Nuclear, Inc.) and each compound of the present invention to be tested in 0.5 ml of 50 mM tris-HCl--10 mM MgCl2 --1 mM EDTA (pH 7.4) for 120 minutes at room temperature (about 20 to 25° C.), followed by suction filtration with a glass filter (Uni-Filter plate GF/C; Packard Instruments Co., Ind.) and washing four times with 1 ml of ice-cold Tris-HCl buffer. After the filter was dried for 1 hour at 50° C., a scintillator (Miroscinti 0; Packard Instruments Co., Inc.) was added, and the radioactivity of [^3 H]-N-methylscopolamine adsorbed by the filter was counted by a liquid scintillation counter (TopCount™; Packard Instruments Co., Inc.). Non-specific binding of [^3 H]-N-methylscopolamine was measured in the presence of 1 μM N-methylscopolamine, which was added. According to the method of Cheng and Prusoff (Biochem. Pharmacol. 22: pp. 3099-3108, 1973), the binding affinity (Ki value) of the compound of the present invention for muscarinic receptors was calculated from the concentration (IC50) of the test compound which achieved 50% inhibition of the binding of [^3 H]-N-methylscopolamine, labeled ligand.

Assay [2] deals with T2, m2 muscarinic acetylcholine receptor (Homo sapiens, UniProt P08172).
T2 construct: purchased Receptor Biology Inc; host or cells: CHO cells
T2 sequence (P08172 1-466): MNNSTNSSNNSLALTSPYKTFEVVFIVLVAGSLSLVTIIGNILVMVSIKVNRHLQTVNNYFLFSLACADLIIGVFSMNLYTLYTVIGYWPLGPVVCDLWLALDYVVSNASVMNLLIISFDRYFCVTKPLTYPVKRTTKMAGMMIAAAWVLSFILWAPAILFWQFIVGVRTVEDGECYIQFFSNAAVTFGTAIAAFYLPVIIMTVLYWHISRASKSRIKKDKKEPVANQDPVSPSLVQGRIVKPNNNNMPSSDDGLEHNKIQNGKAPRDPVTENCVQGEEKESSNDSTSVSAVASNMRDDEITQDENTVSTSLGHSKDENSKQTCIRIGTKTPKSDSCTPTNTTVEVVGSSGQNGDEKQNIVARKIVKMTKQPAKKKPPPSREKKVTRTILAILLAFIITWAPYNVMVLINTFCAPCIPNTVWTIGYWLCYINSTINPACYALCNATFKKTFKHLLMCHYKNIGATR
Description: biochemical. The assay is classed as binding. The settings on record: CHO cells expressing m2; 0.2 nM [3H]-N-methylscopolamine, pH 7.4, 120 min, room temperature. The protocol:
as §1

The next assay has as its system muscarinic M3 receptor. Description: Bronchodilation in dogs (oral administration), methacholine provocation test. The assay is classed as in vivo, dog (beagle). The conditions noted are these: 0.1 mg/kg, P.O., 4 hrs later. The protocol: Tests for Antagonism Against Muscarinic M3 Receptor (in vivo)
Tests for Bronchodilation in Dogs (oral administration)
Male beagles of 12 to 24 months of age, weight 10 to 15 kg, were anesthetized with pentobarbital (30 mg/kg, iv.), and the trachea of each dog was intubated. The sensitivity of the airway (methacoline reaction threshold value) was measured at least twice at two weeks' intervals by a methacoline provocation test, and dogs manifesting a reproducible methacoline reaction threshold value^1) were selected. To those dogs whose methacholine reaction threshold value was established, the test compound was orally administered (0.1 mg/kg). Four hours after the administration, a methacoline provocation test was again conducted, and the methacholine reaction threshold value^2) after the administration of the test compound was measured. The brochodilator activity of the test compound was determined by the following equation: [formula]
The methacholine provocation test was conducted using an Astograph TCK-6100H model (Chest). Methacholine chloride was used as brochoconstritor, which was diluted with isotonic sodium chloride solution in 10 grade concentration levels from 40,000 μg/ml to 20,000, 10,000, 5,000, 2,500, 1,250, 625, 312.5, 156 and 78 μg/ml. The test animals were caused to inhale these methacoline aerosols for 1 min. at a time, starting with the lowest concentration upward, and the respiratory resistance was continuously recorded. The concentration of methacoline at which the respiratory resistance reached a value twice its initial level was deemed to be the methacholine threshold value.

Assay [3] deals with T3, M2 receptor (right atrium) (Rattus norvegicus, UniProt P10980).
T3 construct: the right atrium was isolated; from tissue; host or cells: isolated right atrium of male SD rat
T3 sequence (P10980 1-466): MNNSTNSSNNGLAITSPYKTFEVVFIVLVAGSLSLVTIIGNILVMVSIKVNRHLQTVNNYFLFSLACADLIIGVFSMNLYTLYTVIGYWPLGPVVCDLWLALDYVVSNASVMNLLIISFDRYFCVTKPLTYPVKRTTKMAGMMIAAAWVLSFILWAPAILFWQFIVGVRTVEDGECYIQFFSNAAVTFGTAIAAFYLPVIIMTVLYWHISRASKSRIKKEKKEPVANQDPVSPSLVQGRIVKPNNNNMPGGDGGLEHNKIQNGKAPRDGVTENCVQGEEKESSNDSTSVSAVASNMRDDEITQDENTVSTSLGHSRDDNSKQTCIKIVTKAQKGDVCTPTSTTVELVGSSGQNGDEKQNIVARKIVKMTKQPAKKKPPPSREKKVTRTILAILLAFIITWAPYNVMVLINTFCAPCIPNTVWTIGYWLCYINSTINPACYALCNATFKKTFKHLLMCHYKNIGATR
Nature of the assay: Antagonism to M2 receptor in isolated rat right atrium (carbachol dose-response). The settings on record: 32° C. As to the method:
1) Tests for Antagonism to M2 Receptor in an Isolated Rat Right Atrium
These tests were performed according to a conventional method. A male SD strain rat (weighing 300-500 g) was killed by exsanguination, and the right atrium was isolated. This preparation was isometrically suspended in organ bath filled with 20 ml of Krebs-Hanseleit solution (gassed with 95% O2 -5% CO2 and kept at 32° C.) with an initial tension of 0.5 g. The heart rate was recorded with a heart rate counter. After the preparation was equilibrated for 30 minutes, carbachol (10^-9 to 10^-6 M) was cumulatively administered in three-fold increasing doses. Thus, a decrease in heart rate was measured to obtain a dose-response curve for the control experiment. After the preparation was washed with fresh solution to restore the heart rate, a test compound was administered thereto. Ten minutes later, carbachol was cumulatively administered again. Responses to carbachol were expressed as percentages based on the heart rate before the administration of carbachol as 100%. The antagonistic potency (KB value) of the test compound was determined from the degree of shift of the dose-response curve obtained by treatment with individual test compound of the present invention.

For a further assay, the target named is T4, M3 receptor (trachea) (Rattus norvegicus, UniProt P08483).
T4 construct: the trachea was isolated; from tissue; host or cells: isolated trachea of male SD rat
T4 sequence (P08483 whole entry): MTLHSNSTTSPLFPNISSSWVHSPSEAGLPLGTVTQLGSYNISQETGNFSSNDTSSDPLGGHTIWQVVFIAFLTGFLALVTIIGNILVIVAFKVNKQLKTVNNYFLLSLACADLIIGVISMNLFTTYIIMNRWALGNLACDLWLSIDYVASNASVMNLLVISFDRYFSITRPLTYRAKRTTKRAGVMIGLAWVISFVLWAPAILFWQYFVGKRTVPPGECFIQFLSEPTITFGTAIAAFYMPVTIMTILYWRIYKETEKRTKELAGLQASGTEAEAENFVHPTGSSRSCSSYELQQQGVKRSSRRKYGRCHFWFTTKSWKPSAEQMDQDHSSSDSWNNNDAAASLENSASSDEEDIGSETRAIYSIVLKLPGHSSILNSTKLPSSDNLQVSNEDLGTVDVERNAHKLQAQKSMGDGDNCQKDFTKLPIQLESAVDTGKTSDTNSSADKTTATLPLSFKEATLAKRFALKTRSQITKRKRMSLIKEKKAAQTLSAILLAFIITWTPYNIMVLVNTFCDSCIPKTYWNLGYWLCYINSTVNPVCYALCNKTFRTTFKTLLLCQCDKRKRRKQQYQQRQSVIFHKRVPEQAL
Description: Antagonism to airway M3 receptor in isolated rat trachea (carbachol dose-response). The conditions noted are these: for Kb: isolated rat trachea, carbachol, 32° C.; for M2/M3 (ratio of KB): selectivity right atrium M2 over trachea M3, in vitro. The protocol: 2) Tests for Antagonism to the Airway M3 Receptor in an Isolated Rat Right Trachea
These tests were performed according to a conventional method. A male SD strain rat (weighing 300-500 g) was killed by exsanguination, and the trachea was isolated. Annular segments (2 mm wide) were cut out from the trachea and cut transversely at the anterior cartilage part to make an open ring preparation. The preparation was suspended in a Magnus tube filled with 5 ml of Krebs-Hanseleit solution (gassed with 95% O2 -5% CO2 and kept at 32° C.) with an initial tension of 1.0 g and a resting tension of 0.6 g. The tension of the preparation was recorded isometrically. After the preparation was equilibrated for an hour, the preparation was caused to contract twice with 10^-4 M carbachol, and the second contraction induced by carbachol was used as the reference contraction. After the preparation was washed with fresh solution to be restored to the base line, a test compound was administered thereto (or no treatment was given). Ten minutes later, carbachol (10^-8 to 10^-3 M) was cumulatively administered in three-fold increasing doses to obtain a dose-response curve. The dose-response curve was plotted by expressing responses as percentages based on the reference contraction of the preparation as 100%. The antagonistic potency (KB value) of the test compound was determined from the degree of shift of the dose-response curve obtained by treatment with the test compound.

T1 sequence (P20309 whole entry): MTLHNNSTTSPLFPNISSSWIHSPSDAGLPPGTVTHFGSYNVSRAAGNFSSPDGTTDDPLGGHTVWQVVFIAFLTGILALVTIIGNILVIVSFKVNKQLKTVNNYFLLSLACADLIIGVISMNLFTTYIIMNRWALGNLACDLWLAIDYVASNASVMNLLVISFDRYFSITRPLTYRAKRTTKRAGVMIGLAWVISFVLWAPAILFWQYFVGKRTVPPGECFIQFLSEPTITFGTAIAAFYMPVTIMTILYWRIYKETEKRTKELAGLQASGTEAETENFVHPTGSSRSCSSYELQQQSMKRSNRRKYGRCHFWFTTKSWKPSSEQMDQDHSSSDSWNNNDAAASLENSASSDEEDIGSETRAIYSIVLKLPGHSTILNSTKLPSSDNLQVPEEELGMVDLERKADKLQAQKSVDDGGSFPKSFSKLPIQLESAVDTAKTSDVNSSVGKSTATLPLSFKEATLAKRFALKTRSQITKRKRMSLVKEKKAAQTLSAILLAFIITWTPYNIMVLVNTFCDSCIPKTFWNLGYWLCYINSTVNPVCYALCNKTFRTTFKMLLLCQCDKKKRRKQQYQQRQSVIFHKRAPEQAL

In general, Ki refers to a measure of affinity in units of concentration, obtained from inhibition or displacement. By Kb is commonly meant the equilibrium dissociation constant of an antagonist, usually derived from a functional assay. With `O=C(N1CC2=C(CNC2)C1)[C@](O)(c1ccccc1)[C@@H]1CCC(F)(F)C1` [Example 35, 3-{(2R)-2-((1R)-3,3-difluorocyclopentyl)-2-hydroxy-2-phenylacetyl}-3,7-diazabicyclo[3.3.0]oct-1(5)-ene], in assay [1], the Ki was determined as 0.0042 µM and the “m2/m3 (ratio of Ki)” value came to 160. Besides, in assay [2], affinity was put at a Ki of 0.67 µM. The “Methacoline Provocation Test Shift value” with muscarinic M3 receptor worked out at 5.8. For the same compound, the Kb in assay [3] came out at 2.4 µM. For the same compound, on M3 receptor (trachea), the Kb was determined as 0.008 µM and the “M2/M3 (ratio of KB)” value is listed as 300.
In the case of `O=C(N1CCC2(CCNC2)CC1)[C@](O)(c1ccccc1)[C@@H]1CCC(F)(F)C1` [Example 26, 8-{(2R)-2-((1R)-3,3-difluorocyclopentyl)-2-hydroxy-2-phenylacetyl}-2,8-diazaspiro[4.5]decane], in assay [1], the Ki was determined as 0.00044 µM and the “m2/m3 (ratio of Ki)” value worked out at 60. This compound also returned a Ki in assay [2] of 0.027 µM. The “Methacoline Provocation Test Shift value” in the assay with muscarinic M3 receptor is 7.1. In assay [3], this compound gave an antagonist equilibrium constant (Kb) of 0.075 µM. Moreover, on M3 receptor (trachea), the Kb came to 0.00083 µM and the “M2/M3 (ratio of KB)” value amounted to 75.
As to `CC1NCCC12CCN(C(=O)[C@](O)(c1ccccc1)[C@@H]1CCC(F)(F)C1)CC2` (single isomer, unassigned) [Example 43 ((IS*)-substance), (1R*)- and (1S*)-8-{(2R)-2-((1R)-3,3-difluorocyclopentyl)-2-hydroxy-2-phenylacetyl}-1-methyl-2,8-diazaspiro[4.5]decane], in assay [1], affinity was put at a Ki of 0.00026 µM and the “m2/m3 (ratio of Ki)” value worked out at 80. Further, in assay [2], the inhibition constant Ki amounted to 0.021 µM. The “Methacoline Provocation Test Shift value” in the assay on muscarinic M3 receptor is 22.
Compound `Cl.NC1CCN(C(=O)[C@](O)(c2ccccc2)[C@@H]2CCC(F)(F)C2)CC1` [Example 1, 4-Amino-1-{(2R)-2-((1R)-3,3-difluorocyclopentyl)-2-hydroxy-2-Phenylacetyl}piperidine monohydrochloride] showed a Kb in assay [3] of 0.73 µM. For the same compound, on M3 receptor (trachea), the Kb came out at 0.02 µM and the “M2/M3 (ratio of KB)” value was found to be 37.
For `O=C(N1C[C@H]2CCNCC[C@H]2C1)[C@](O)(c1ccccc1)[C@@H]1CCC(F)(F)C1` [Example 29, 9-{(2R)-2-((1R)-3,3-difluorocyclopentyl)-2-hydroxy-2-phenylacetyl}-cis-4,9-diazabicyclo[5.3.0]decane], in assay [1], the Ki is 0.0012 µM and the “m2/m3 (ratio of Ki)” value is 190. The compound also came in with a Ki in assay [2] of 0.23 µM. For the same compound, the “Methacoline Provocation Test Shift value” in the assay on muscarinic M3 receptor came to 22. The Kb in assay [3] came out at 0.23 µM. For the same compound, on M3 receptor (trachea), the antagonist equilibrium constant (Kb) was 0.0016 µM and the “M2/M3 (ratio of KB)” value worked out at 140.
